#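 Compound exposure: 48 hours, 5 concentrations, 96-well plates. At the TGI there is no net growth.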
# Assays:
# Assay in all cases: NCI tumour cell line growth inhibition, 48 h
# SK-MEL-2 melanoma = system: SK-MEL-2 melanoma
# HL-60(TB) leukemia = system: HL-60(TB) leukemia
# KM12 colon = system: KM12 colon
# 786-0 renal = system: 786-0 renal
# M14 melanoma = system: M14 melanoma
# COLO 205 colon = system: COLO 205 colon
# NCI-H522 lung = system: NCI-H522 lung
# IGROV1 ovarian = system: IGROV1 ovarian
# HCT-116 colon = system: HCT-116 colon
# MOLT-4 leukemia = system: MOLT-4 leukemia
# MALME-3M melanoma = system: MALME-3M melanoma
# HCT-15 colon = system: HCT-15 colon
# HT29 colon = system: HT29 colon
# EKVX NSCLC = system: EKVX NSCLC
# SR leukemia = system: SR leukemia
# OVCAR-5 ovarian = system: OVCAR-5 ovarian
# NCI-H460 lung = system: NCI-H460 lung
# RXF 393 renal = system: RXF 393 renal
# HCC-2998 colon = system: HCC-2998 colon
# T-47D breast = system: T-47D breast
Compound,TGI (SK-MEL-2 melanoma) [µM],TGI (HL-60(TB) leukemia) [µM],TGI (KM12 colon) [µM],TGI (786-0 renal) [µM],TGI (M14 melanoma) [µM],TGI (COLO 205 colon) [µM],TGI (NCI-H522 lung) [µM],TGI (IGROV1 ovarian) [µM],TGI (HCT-116 colon) [µM],TGI (MOLT-4 leukemia) [µM],TGI (MALME-3M melanoma) [µM],TGI (HCT-15 colon) [µM],TGI (HT29 colon) [µM],TGI (EKVX NSCLC) [µM],TGI (SR leukemia) [µM],TGI (OVCAR-5 ovarian) [µM],TGI (NCI-H460 lung) [µM],TGI (RXF 393 renal) [µM],TGI (HCC-2998 colon) [µM],TGI (T-47D breast) [µM]
CN(CC(=O)O)c1ncc2c(n1)-c1ccccc1SC2,> 100,> 100,> 100,> 100,> 100,> 100,> 100,> 100,> 100,> 100,> 100,> 100,> 100,> 100,> 100,> 100,> 100,–,–,–
COc1cc2cc3c4c(cc(OC)c(OC)c4c2cc1OC)CCN3C(=O)OCCN1CCNCC1,34.2,30,28.3,23.8,27.9,20.9,30.6,32.2,24.2,34.8,31,29.2,25.8,28.6,29.8,31.9,26.6,27.9,29.8,–
CC(=O)Nc1ccc(C(=O)NN2C(=O)CSC2c2ccc([N+](=O)[O-])cc2)cc1 (stereo not drawn),> 100,–,> 100,> 100,> 100,> 100,–,> 100,> 100,> 100,–,> 100,> 100,> 100,–,> 100,> 100,> 100,> 100,> 100
O=C(O)CC1NC(/C(=C/c2ccccc2)NC(=O)c2ccccc2)OC1=O (stereo not drawn),66.6,38,34.1,> 100,35.2,40.6,33.5,> 100,42.9,45.1,> 100,> 100,> 100,> 100,–,> 100,69.6,> 100,> 100,> 100
O=c1[nH]c2c(nc1NC13CC4CC(CC(C4)C1)C3)c(=O)oc1ccccc12,> 100,> 100,> 100,> 100,> 100,> 100,> 100,> 100,> 100,> 100,> 100,> 100,> 100,> 100,> 100,> 100,> 100,> 100,> 100,–
CCN(CC)CCC(=O)/C=C/c1ccccc1,65.5,> 100,18.5,7.62,33,18,24.2,35.5,22.4,24.2,33.1,32,12.4,22.6,16.1,31.3,32.6,21.5,34.8,–
O=Cc1cn(CCCCCCCCCCCCn2cc(C=O)c3ccccc32)c2ccccc12,> 100,> 100,–,> 100,> 100,> 100,> 100,> 100,> 100,> 100,> 100,> 100,> 100,> 100,> 100,> 100,–,> 100,> 100,–
N#Cc1c(-c2ccc(Cl)cc2)c2c([nH]c1=O)-c1ccccc1SC2,> 100,56.7,> 100,> 100,> 100,50.3,–,> 100,> 100,94.8,> 100,> 100,> 100,70.8,> 100,> 100,> 100,77.4,–,–
O=c1[nH]c(=O)n(C2OC(CO)C(O)C2O)cc1NN=NCc1ccccc1 (stereo not drawn),> 100,> 96.8,> 100,> 100,> 100,> 100,> 100,> 100,> 80.1,> 100,> 100,> 100,> 100,> 100,> 100,> 100,> 100,> 100,> 100,–
CN=c1nc2sc3c(c2c(NC(=S)NC)s1)CCCC3,> 100,> 100,> 100,> 100,–,> 100,> 100,> 100,> 100,> 100,> 100,> 100,> 100,> 100,> 100,> 100,> 100,82.9,> 100,–
COc1cc(C2SCC(=O)N2c2ccccn2)cc(OC)c1OC (stereo not drawn),> 100,> 100,> 100,> 100,> 100,> 100,> 100,> 100,> 100,> 100,–,> 100,> 100,> 100,> 100,> 100,> 100,–,> 100,–
CCN(CC)CC1CCCCCCCCCCC1=O (stereo not drawn),> 100,> 100,> 100,> 100,> 100,> 100,> 100,> 100,> 100,> 100,> 100,> 100,> 100,> 100,> 100,> 100,> 100,–,> 100,–
CO/N=C/c1cc(OC)c(OC)c(OC)c1,> 100,> 100,> 100,> 100,> 100,> 100,> 100,> 100,> 100,> 100,> 100,> 100,> 100,> 100,> 100,> 100,> 100,–,> 100,–
